Read-outs that look alike come from different tables or passages of the source.
What was measured:
[1] = Pharmacokinetics of firocoxib in a single sow after IM injection (Example 1); assay type: in vivo, swine; conditions: 1.5 mg/kg IM; for AUC: im, 1.5 mg/kg
Source text: The objective of this study was to characterize the pharmacokinetic profile and transmammary delivery of firocoxib in a single sow and her litter when administered via injection to provide analgesia to piglets via the milk prior to routine piglet processing procedures. One crossbred sow and her litter sourced from the MVS-Klitz Farm was used for this project. The sow was in good health, and had not received treatment with anti-inflammatory drugs by any route. The study sow was housed in a farrowing crate. Feed and water was provided ad libitum throughout the study period. No additional medications were provided. Study animals were identified using unique duplicate ear tags and/or tattoos.
There was one treatment group in this study (refer to Table 1). The sow was given firocoxib (20 mg/mL) on Study Day 0. Firocoxib was administered via injection five (+/−2) days post-farrow, at 1.5 mg/kg IM.
Blood (sodium heparin tubes) was collected from the sow via jugular venipuncture at the following time points after drug administration via injection to the sow: 0, 1, 2, 3, 4, 6, 8, 10, 12, 24, 36 and 48 hours. The piglets had blood collected via jugular venipuncture at the following timepoints following sow drug administration via injection:
Approximately 10 mL of blood was collected from the sow at each time point, and approximately 5 mL was collected from each piglet at each time point. Following blood collection at the 48 hour time point, the sow and piglets was euthanized and disposed of per study site procedures.
Samples were stored on ice after collection and before processing. Blood samples were centrifuged for 10 minutes at 1,500 g. Collected plasma was placed in duplicate cryovials with a single-use transfer pipette and frozen at −70° C. until analysis. Cryovials were labeled with the time point and collection date.
Plasma concentrations of firocoxib were measured with high-pressure liquid chromatography-tandem mass spectrometry (Shimadzu Prominence, Shimadzu Scientific Instruments, Columbia, Md., USA). Briefly, frozen samples or standards were thawed at room temperature and rigorously vortexed once completely thawed. A 200 μL plasma sample was added to 400 μL 5% Acetic Acid and the internal standard celecoxib (20 μg/mL). The entire diluted sample was added to a 3 mL solid phase extraction tubes (OASIS) which was conditioned prior with methanol (2 ml) and equilibrated with water (2 ml). The sample was then gravity filtered through the solid phase extraction tubes and subsequently washed with 1 ml 5% acetic acid, followed by 1 ml solution of 25% methanol/75% water. Using 2×0.75 mL acetonitrile, firocoxib was eluted into a glass tube and an additional internal standard piroxicam (10 ng/μL) was added. Samples were evaporated to dryness at 48° C. under a stream of nitrogen, reconstituted with […] 25% in water and pipetted into an injection vial for LC-MS/MS analysis with the injection volume set to 10 μL. The mobile phase consisted of acetonitrile and formic acid (0.1%) at a flow rate of 0.4 mL/min. The concentration of this mobile phase began at 85% formic acid (0.1%) from 0 to 0.5 minutes with a linear gradient to 50% formic acid (0.1%) at 2.5 minutes, which was maintained until 3 minutes, followed by a linear gradient to 85% formic acid (0.1%) at 4 minutes with a total run time of 5 minutes.
The standard curve of firocoxib concentration determined using porcine plasma was linear from 0.020 to 5.0 μg/mL and was accepted when the correlation coefficient exceeded 0.99 and measured values were within 15% of the actual values. The lower limit of quantification, defined as the lowest concentration on a linear standard curve with predicted concentrations within 15% of the actual concentration, was 0.020 μg/mL.
Firocoxib time concentration data was analyzed using a commercially available computer software program (Kinetica, Thermo Scientific).

[2] = Necropsy and histopathology examination of lactating sows at 21 d; conditions: for Kidney: Focal interstitial nephritis (number of sows) / Kidney: Mild tubular ectasia (number of sows) / Kidney: Within normal limits (number of sows) / Liver: Within normal limits (number of sows) / Small Intestine: Within normal limits (number of sows) / Stomach: Within normal limits (number of sows): 21 d
Description: Thereafter, sows and piglets in all groups were humanely euthanized and examined for macroscopic signs of NSAID toxicity. Necropsies were performed on all animals to inspect for macroscopic signs of NSAID toxicity. Samples of kidney, liver, small intestine and stomach were sectioned into 0.5-1 cm slices and placed in plastic jars containing 10% buffered formalin in a 10:1 formalin:tissue ratio for histopathology examination.
Formalin-fixed sections of kidney, liver, small intestine and stomach from sows and 3 piglets/litter were trimmed and positioned in cassettes loaded into an automated tissue processor (Sakura VIP 5, Sakura Finetek, Torrance, Calif.) for overnight paraffin infiltration. Processed tissues in cassettes were then placed in a paraffin bath (Sakura Tissue-Tek TEC 5, Sakura Finetek, Torrance, Calif.) after which they were removed from the cassette and oriented in molds. […] Tissue sections were cut at 4 microns from the cooled blocks. Paraffin ribbons with tissue were then laid out on a water bath and the floating tissue sections were collected onto microscope slides. The unstained tissue sections were then mounted on the slide and dried at 60° C. for 20 minutes. Finally, the tissue was deparaffinized and rehydrated for staining by transfer through xylene and a series of decreasing concentrations of alcohol to hematoxylin on an automated stainer (Sakura Tissue-Tek Prisma, Sakura Finetek, Torrance, Calif.). After a tap water rinse, the tissue on the slide was counterstained with eosin, dehydrated in an alcohol series, cleared in xylene and cover slipped (Sakura Tissue-Tek Glas g2) prior to histological examination by a veterinary diagnostician with experience in the histological examination of swine tissues.

[3] = female, crossbred, swine, plasma

For CC1(C)OC(=O)C(OCC2CC2)=C1c1ccc(S(C)(=O)=O)cc1 [firocoxib], the “% AUCextra” value [1] was 33.02%, the AUMCextra [1] was 322.22 μg/mL * (h)^2 and the AUMClast [1] was 155.18 μg/mL * (h)^2. The AUMtot [1] was 477.39 μg/mL * (h)^2, the Clearance [1] was 32.45 L/h and the Vss [1] was 1390.95 L. The Vz [1] was 1285.61 L, the AUC(0-t) ([1]; female, crossbred, pig, plasma) was 7460 ng·h/mL and the MRT ([1]; female, crossbred, pig, plasma) was 42.9 h. For the same compound, the MRT last ([1]; female, crossbred, pig, plasma) was 20.8 h, the half-life ([1]; female, crossbred, pig, plasma) was 27.5 h and the AUC ([1]; female, crossbred, pig, plasma, read-out: AUCextra) was 3680 ng·h/mL. For the same compound, the AUC ([1]; female, crossbred, pig, plasma, read-out: AUCtot) was 11100 ng·h/mL, the Cmax [1, 3] was 287 ng/mL and the Tmax [1, 3] was 6 h. For the same compound, the “macroscopic lesions on post-mortem examination” value ([2]; kidney, liver, stomach and small intestines, sows and piglets) was “No macroscopic lesions were evident”, the “Kidney: Focal interstitial nephritis (number of sows)” value (“Kidney: Focal interstitial nephritis” below) ([2]; sows, 0.5 mg/kg IM) was 2 and the “Kidney: Mild tubular ectasia (number of sows)” value (“Kidney: Mild tubular ectasia” below) ([2]; sows, 0.5 mg/kg IM) was 1. For the same compound, the “Kidney: Within normal limits (number of sows)” value (“Kidney: Within normal limits” below) ([2]; sows, 0.5 mg/kg IM) was 1, the “Liver: Within normal limits (number of sows)” value (“Liver: Within normal limits” below) ([2]; sows, 0.5 mg/kg IM) was 4 and the “Small Intestine: Within normal limits (number of sows)” value (shortened to “Small Intestine: Within normal limits”) ([2]; sows, 0.5 mg/kg IM) was 4. For the same compound, the “Stomach: Within normal limits (number of sows)” value (shortened to “Stomach: Within normal limits”) ([2]; sows, 0.5 mg/kg IM) was 4, the “Kidney: Focal interstitial nephritis” value ([2]; sows, 1.0 mg/kg IM) was 1 and the “Kidney: Mild tubular ectasia” value ([2]; sows, 1.0 mg/kg IM) was 2. For the same compound, the “Kidney: Within normal limits” value ([2]; sows, 1.0 mg/kg IM) was 1, the “Liver: Within normal limits” value ([2]; sows, 1.0 mg/kg IM) was 4 and the “Small Intestine: Within normal limits” value ([2]; sows, 1.0 mg/kg IM) was 4. The “Stomach: Within normal limits” value ([2]; sows, 1.0 mg/kg IM) was 4, the “Kidney: Focal interstitial nephritis” value ([2]; sows, 1.5 mg/kg IM) was 0 and the “Kidney: Mild tubular ectasia” value ([2]; sows, 1.5 mg/kg IM) was 1. The “Kidney: Within normal limits” value ([2]; sows, 1.5 mg/kg IM) was 3, the “Liver: Within normal limits” value ([2]; sows, 1.5 mg/kg IM) was 4 and the “Small Intestine: Within normal limits” value ([2]; sows, 1.5 mg/kg IM) was 4. The “Stomach: Within normal limits” value ([2]; sows, 1.5 mg/kg IM) was 4, the “Kidney: Focal interstitial nephritis” value ([2]; sows, 2.0 mg/kg IM) was 2 and the “Kidney: Mild tubular ectasia” value ([2]; sows, 2.0 mg/kg IM) was 1. The “Kidney: Within normal limits” value ([2]; sows, 2.0 mg/kg IM) was 1, the “Liver: Within normal limits” value ([2]; sows, 2.0 mg/kg IM) was 4 and the “Small Intestine: Within normal limits” value ([2]; sows, 2.0 mg/kg IM) was 4. The “Stomach: Within normal limits” value ([2]; sows, 2.0 mg/kg IM) was 4 and the “kidneys with ectatic tubules (number)” value ([2]; sows, all treatment groups) was 5.

Reference: US10434083B2, “Transmammary delivery of cyclooxygenase-2 inhibitors for analgesia in neonates” (Iowa State University Research Foundation, Inc., priority 2018, dated 2019)
